Experimental data taken from patent US8809280B2, “Therapeutic peptides” (Lytix Biopharma AS, priority 2009, dated 2014).
In brackets after ≈: the same amount, converted by molar mass. Read-outs that look alike come from different tables or passages of the source.

How the values were obtained:
Assay type in all cases: cell-based
[1] = tested on: Staphylococcus aureus (ATTC 25923); assay: microbe, parasite or virus in culture
Procedure: (§1) The antimicrobial testing was conducted by TosLab A/S (Tromsø, Norway). Each compound was diluted to 1 mg/ml in water and tested in duplicates at 200, 100, 50, 35, 15, 10, 5, 2.5, 1, 0.5 μg/ml except 4n which was tested at 50, 35, 15, 10, 5, 2.5, 1, 0.5 μg/ml due to solubility problems. All tested compounds were di TFA salts.
(§2) The bacterial strains were grown in 2% Bacto Peptone water until exponential growth was achieved. […] A bacterial concentration of 2×10^6 cfu/ml was used. Both negative control (no peptide) and positive control (Gentamicin) was used for all bacterial strains. Growth or no growth was judged by the turbidity of the wells.
Staphylococcus aureus (ATTC 25923)
(§3) Antimicrobial assays: 200 μg/ml
(§4) Suitable methodologies are described in Example 1.
(§5) Each compound was tested in duplicates at 200, 100, 50, 35, 15, 10, 5, 2.5, 1, 0.5 μg/ml. All tested compounds were di-trifluoroacetic acid salts.

[2] = tested on: methicillin resistant Staphylococcus aureus (ATCC 33591); assay: microbe, parasite or virus in culture; settings: for MIC: Staphylococcus aureus, ATCC 33591 / MRSA, Example 2, values separated by / are repeat tests, read-out: Antimicrobial potency (MIC) MRSA
Procedure: as §1, §2
Methicillin resistant Staphylococcus aureus (ATCC 33591)
as §3, §4, §5

[3] = tested on: methicillin resistant Staphylococcus epidermidis (ATCC 27626); assay: microbe, parasite or virus in culture
Procedure: as §1, §2
Methicillin resistant Staphylococcus epidermidis (ATCC 27626)
as §3, §4, §5

[4] = tested on: Escherichia coli (ATTC 25922); assay: microbe, parasite or virus in culture
Procedure: as §1, §2
Escherichia coli (ATTC 25922)
as §3, §4, §5

human red blood cells = assay: cells
Procedure: The hemolytic testing against human erythrocytes was conducted by Lytix Biopharma A/S (Tromso, Norway). Each compound was tested from a concentration of 1 mg/ml and lower, except 4k and 4n which was only tested up to 0.5 mg/ml due to solubility problems. 8 mL of blood was collected from adult healthy male donors. The blood was divided equally and distributed in a commercial available EDTA containing test tube (BD vacutainer, 7.2 mg K2 EDTA) and in a 10 mL reaction vial containing 40 μL of a heparin solution (1000 U/mL in 0.9% sodium chloride). After 30 minutes the hematocrit of the EDTA treated blood was determined. The heparinized blood was centrifuged for 10 minutes at 1500 rpm and the supernatant removed. Subsequently the RBCs were washed with prewarmed PBS three times, and diluted to 10% hematocrit. The compounds dissolved in PBS (concentration 1 μg/mL to 1000 µg/mL) and the erythrocytes were incubated under agitation at 37° C. for one hour. A positive control with an end concentration of 0.1% TRITON X-100 (nonionic surfactant) and a negative control containing pure PBS buffer were included. The samples were centrifuged (4000 rpm) for 5 minutes and the absorption of the supernatant was measured at 405 nm. The values given in Table 1A correspond to 50% hemolysis.
The plasma fraction of heparinized human blood was first removed by centrifugation and three additional washing steps with 37° C. pre-warmed phosphate buffered saline (PBS). Subsequently, the human RBC were diluted to 10% hematocrit and the β^2,2-amino acid derivatives were dissolved in PBS providing concentrations ranging from 1-1000 μg/mL. The diluted RBC were added to the compound solutions to a final erythrocyte concentration of 1% v/v. PBS and TRITON X-100 (non-ionic surfactant), in a final concentration of 0.1% v/v, were included as negative and positive control. After 1 hour agitated incubation at 37° C. the samples were centrifuged at 4000 rpm for 5 min. Release of hemoglobin was determined by measuring the absorbance of the supernatant at 405 nm. Hemolytic activity was calculated as the ratio of treated sample with β^2,2-amino acid derivative and tenside treated sample according to the formula: […]

[5] = Staphylococcus aureus, Example 2, values separated by / are repeat tests, read-out: Antimicrobial potency (MIC) S. aureus
[6] = Staphylococcus epidermidis, ATCC 27626 / MRSE, Example 2, values separated by / are repeat tests, read-out: Antimicrobial potency (MIC) MRSE
[7] = Escherichia coli, Example 2, values separated by / are repeat tests, read-out: Antimicrobial potency (MIC) E. coli
[8] = Homo sapiens, Erythrocyte, Example 2, highest concentration tested 1000 μg/ml, * low solubility in the test media, read-out: Toxicity RBC (EC50)

SMILES	MIC ([1]; ATTC 25923, read-out: MIC S. aureus) [µM]	MIC MRSA ([2]; ATCC 33591) [µM]	MIC ([3]; ATCC 27626, read-out: MIC MRSE) [µM]	MIC ([4]; ATTC 25922, read-out: MIC E. coli) [µM]	EC50 (human red blood cells; red cells of human) [µM]	MIC [1, 5] [µg/mL]	MIC [2] [µg/mL]	MIC [3, 6] [µg/mL]	MIC [4, 7] [µg/mL]	MBC S. aureus ([1]; ATTC 25923) [µM]	MBC MRSA ([2]; ATCC 33591) [µM]	MBC MRSE ([3]; ATCC 27626) [µM]	MBC E. coli ([4]; ATTC 25922) [µM]	EC50 (human red blood cells; [8]) [µg/mL]
CC(C)(C)c1cc(CC(CN)(Cc2cc(C(C)(C)C)cc(C(C)(C)C)c2)C(=O)N[C@@H](CCCNC(=N)N)C(N)=O)cc(C(C)(C)C)c1 [Compound 4n]	2.9	2.1 (≈ 1.36 µg/mL)	10.1	5.7	99	–	–	–	–	4.6 (≈ 2.99 µg/mL)	4.6 (≈ 2.99 µg/mL)	3.4 (≈ 2.21 µg/mL)	5.7 (≈ 3.7 µg/mL)	–
CN(C)CCNC(=O)C(CN)(Cc1ccccc1)Cc1ccccc1 [Compound 23, 3-amino-2,2-dibenzyl-N-(2-(dimethylamino)-ethyl)-propanamide]	–	–	–	–	–	> 100	> 100	> 100	> 100	–	–	–	–	> 1000
CN(C)CCNC(=O)C(CN)(Cc1ccc(C(C)(C)C)cc1)Cc1ccc(C(C)(C)C)cc1 [Compound 24, 3-amino-2,2-bis(4-tert-butylbenzyl)-N-(2-(dimethylamino)-ethyl)-propanamide]	–	–	–	–	–	5	5 (≈ 11.1 µM)	2.5	5	–	–	–	–	185
Cc1cc(C)cc(CC(CN)(Cc2cc(C)cc(C)c2)C(=O)NCCN(C)C)c1 [Compound 25, 3-amino-N-(2-(dimethylamino)-ethyl)-2,2-bis(3,5-dimethylbenzyl)-propanamide]	–	–	–	–	–	100	50 (≈ 126 µM)	10	50	–	–	–	–	820

More lines, main results first:

MIC ([1]; ATTC 25923, read-out: MIC S. aureus) [µM]	MIC MRSA ([2]; ATCC 33591) [µM]	MIC ([3]; ATCC 27626, read-out: MIC MRSE) [µM]	MIC ([4]; ATTC 25922, read-out: MIC E. coli) [µM]	EC50 (human red blood cells; red cells of human) [µM]	MIC [1, 5] [µg/mL]	MIC [2] [µg/mL]	MIC [3, 6] [µg/mL]	MIC [4, 7] [µg/mL]	SMILES	MBC S. aureus ([1]; ATTC 25923) [µM]	MBC MRSA ([2]; ATCC 33591) [µM]	MBC MRSE ([3]; ATCC 27626) [µM]	MBC E. coli ([4]; ATTC 25922) [µM]	EC50 (human red blood cells; [8]) [µg/mL]
–	–	–	–	–	35	35 (≈ 88.5 µM)	35	100	CN(C)CCNC(=O)C(CN)(CCCc1ccccc1)CCCc1ccccc1 [Compound 26, 2-(aminomethyl)-N-(2-(dimethyl-amino)ethyl)-5-phenyl-2-(3-phenyl-propyl)-pentanamide]	–	–	–	–	316
–	–	–	–	–	5	5 (≈ 11.4 µM)	5	15	CN(C)CCNC(=O)C(CN)(Cc1ccc2ccccc2c1)Cc1ccc2ccccc2c1 [Compound 27, 3-amino-N-(2-(dimethylamino)ethyl)-2,2-bis(naphthalen-2-ylmethyl)propanamide]	–	–	–	–	145
–	–	–	–	–	50	50 (≈ 108 µM)	35	100	Cc1cc(C)cc(CC(CN)(Cc2cc(C)cc(C)c2)C(=O)N2CCN(CCN(C)C)CC2)c1 [Compound 35, 3-amino-1-(4-(2-(dimethylamino)ethyl)piperazin-1-yl)-2,2-bis(3,5-dimethylbenzyl)propan-1-one]	–	–	–	–	–
